Drawing on patent US8901111B2, “Aryl-substituted heterocyclic urea modulators of fatty acid amide hydrolase” (Janssen Pharmaceutica NV, priority 2009, dated 2014), this text covers IC50 for 17 compounds.

Test [1] has as its target T1, rat FAAH (Rattus norvegicus, UniProt P97612).
T1 construct: expressed in transfected cells; crude homogenate
T1 sequence (P97612 1-579): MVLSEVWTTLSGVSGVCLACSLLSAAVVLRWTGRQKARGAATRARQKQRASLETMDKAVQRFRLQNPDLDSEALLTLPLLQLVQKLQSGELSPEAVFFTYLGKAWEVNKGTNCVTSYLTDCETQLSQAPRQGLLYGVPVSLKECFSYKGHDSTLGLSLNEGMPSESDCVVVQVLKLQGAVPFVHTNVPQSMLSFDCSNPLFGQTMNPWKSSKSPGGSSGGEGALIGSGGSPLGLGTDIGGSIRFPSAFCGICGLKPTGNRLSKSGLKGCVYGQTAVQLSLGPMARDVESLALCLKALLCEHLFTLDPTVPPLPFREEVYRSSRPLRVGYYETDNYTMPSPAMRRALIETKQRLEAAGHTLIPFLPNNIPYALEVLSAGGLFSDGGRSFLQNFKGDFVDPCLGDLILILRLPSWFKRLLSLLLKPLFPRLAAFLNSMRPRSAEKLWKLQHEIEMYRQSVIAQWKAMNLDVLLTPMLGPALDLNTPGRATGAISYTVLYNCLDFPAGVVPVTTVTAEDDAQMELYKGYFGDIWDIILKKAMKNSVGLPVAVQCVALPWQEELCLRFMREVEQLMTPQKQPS
Briefly: Assay Method 2: FAAH assay, 3H-anandamide hydrolysis in homogenate of cells transfected with rat FAAH. As to conditions: cell homogenate, 3H-AEA 80 nM, 1 h at rt, average of results. The test is classed as biochemical. The procedure: A. Transfection of Cells with Rat FAAH
(§1) A 10-cm tissue culture dish with a confluent monolayer of SK-N-MC cells was split 2 days (d) prior to transfection. Using sterile technique, the media was removed and the cells were detached from the dish by the addition of trypsin. One fifth of the cells were then placed onto a new 10-cm dish. Cells were grown in a 37° C. incubator with 5% CO2 in Minimal Essential Media Eagle with 10% Fetal Bovine Serum. After 2 d, cells were approximately 80% confluent. These cells were removed from the dish with trypsin and pelleted in a clinical centrifuge. The pellet was re-suspended in 400 μL complete media and transferred to an electroporation cuvette with a 0.4 cm gap between the electrodes. Supercoiled rat FAAH cDNA (1 μg) was added to the cells and mixed. The voltage for the electroporation was set at 0.25 kV, and the capacitance was set at 960 μF. After electroporation, the cells were diluted into complete media (10 mL) and plated onto four 10-cm dishes. Because of the variability in the efficiency of electroporation, four different concentrations of cells were plated. The ratios used were 1:20, 1:10, and 1:5, with the remainder of the cells being added to the fourth dish. The cells were allowed to recover for 24 h before adding the selection media (complete media with 600 μg/mL G418). After 10 d, dishes were analyzed for surviving colonies of cells. Dishes with well-isolated colonies were used. Cells from individual colonies were isolated and tested.
(§2) T84 frozen cell pellets or transfected SK-N-MC cells (contents of 1×15 cm culture dishes) were homogenized in 50 mL of FAAH assay buffer (125 mM Tris, 1 mM EDTA, 0.2% Glycerol, 0.02% Triton X-100, 0.4 mM Hepes, pH 9). The assay mixture consisted of 50 μL of the cell homogenate, 10 μL of the test compound, and 40 μL of anandamide [1-^3H-ethanolamine] (^3H-AEA, Perkin-Elmer, 10.3 Ci/mmol), which was added last, for a final tracer concentration of 80 nM. The reaction mixture was incubated at rt for 1 h. During the incubation, 96-well Multiscreen filter plates (catalog number MAFCNOB50; Millipore, Bedford, Mass., USA) were loaded with 25 μL of activated charcoal (Multiscreen column loader, catalog number MACL09625, Millipore) and washed once with 100 μL of MeOH. Also during the incubation, 96-well DYNEX MicroLite plates (catalog number NL510410) were loaded with 100 μL of MicroScint40 (catalog number 6013641, Packard Bioscience, Meriden, Conn., USA). After the 1 h incubation, 60 μL of the reaction mixture were transferred to the charcoal plates, which were then assembled on top of the DYNEX plates using Centrifuge Alignment Frames (catalog number MACF09604, Millipore). The unbound labeled ethanolamine was centrifuged through to the bottom plate (5 min at 2000 rpm), which was preloaded with the scintillant, as described above. The plates were sealed and left at rt for 1 h before counting on a Hewlett Packard TopCount.
(§3) Results for compounds tested in these assays are summarized in Table 1, as an average of results obtained. Compounds were tested in the free base or trifluoroacetic acid salt form. Compounds tested in the trifluoroacetic acid salt form are indicated as such by a “*” designation after the example number. Where activity is shown as greater than (>) a particular value, the value is the solubility limit of the compound in the assay medium or the highest concentration tested in the assay.

For test [2], the target named is T2, FAAH (Homo sapiens, UniProt O00519).
T2 sequence (O00519 1-579): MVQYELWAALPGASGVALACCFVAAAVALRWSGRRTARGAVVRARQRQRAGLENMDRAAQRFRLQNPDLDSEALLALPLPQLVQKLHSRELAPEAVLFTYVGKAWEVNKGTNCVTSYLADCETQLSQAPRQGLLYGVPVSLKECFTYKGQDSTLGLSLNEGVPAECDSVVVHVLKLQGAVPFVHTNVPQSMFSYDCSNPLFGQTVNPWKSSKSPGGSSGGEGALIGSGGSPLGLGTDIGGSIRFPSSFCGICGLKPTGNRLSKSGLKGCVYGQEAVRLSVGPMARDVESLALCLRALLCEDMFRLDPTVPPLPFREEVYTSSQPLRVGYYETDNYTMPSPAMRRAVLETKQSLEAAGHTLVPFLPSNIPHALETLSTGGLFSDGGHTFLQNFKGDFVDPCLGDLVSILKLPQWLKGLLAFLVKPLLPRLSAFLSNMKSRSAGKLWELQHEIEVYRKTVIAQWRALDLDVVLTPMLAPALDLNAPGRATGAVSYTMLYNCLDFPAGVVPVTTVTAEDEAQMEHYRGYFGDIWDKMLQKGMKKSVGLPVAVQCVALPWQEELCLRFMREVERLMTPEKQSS
Briefly: Assay Method 1: FAAH assay, 3H-anandamide hydrolysis in homogenate of cells transfected with human FAAH. The test is classed as biochemical. More on the design: expressed in transfected cells; crude homogenate (T84 cell pellets named as alternative). The conditions noted are these: cell homogenate, 3H-AEA 80 nM, 1 h at rt, average of results. The procedure: A. Transfection of Cells with Human FAAH
as §1, with “Supercoiled human” for “Supercoiled rat”, “[…]” for “960 μF.”
as §2, §3

Where a name gives a salt, the structure may show the parent alone.

Regarding `O=C(Nc1cccnc1)N1CC(COc2cccc(C(F)(F)F)c2)C1` [Example 8, 3-(3-Trifluoromethyl-phenoxymethyl)-azetidine-1-carboxylic acid pyridin-3-ylamide, trifluoroacetate salt], the figures for the IC50 in test [1] and in test [2] were 620 nM and 2400 nM, respectively.
The corresponding values for `O=C(Nc1cccnc1)N1CC(COc2ccc(Br)cc2)C1` [Example 3, 3-(4-Bromo-phenoxymethyl)-azetidine-1-carboxylic acid pyridin-3-ylamide] are greater than 10000 nM and greater than 10000 nM.
Taken in the same sequence, the figures for `O=C(Nc1cccnc1)N1CC(CCOc2cccc(OC(F)(F)F)c2)C1` [Example 31, 3-[2-(3-Trifluoromethoxy-phenoxy)-ethyl]-azetidine-1-carboxylic acid pyridin-3-ylamide] were 900 nM and 3000 nM.
As for `O=C(Nc1cccnc1)N1CCC(Cc2ccc3c(c2)OC(F)(F)O3)C1` (stereo not shown) [Example 71, 3-(2,2-Difluoro-benzo[1,3]dioxol-5-ylmethyl)-pyrrolidine-1-carboxylic acid pyridin-3-ylamide], the IC50 in test [1] and in test [2] was greater than 10000 nM throughout.
In the case of `O=C(Nc1cccnc1)N1CC(COc2ccc(OCc3ccccc3)cc2)C1` [Example 19, 3-(4-Benzyloxy-phenoxymethyl)-azetidine-1-carboxylic acid pyridin-3-ylamide], the IC50 in test [1] and in test [2] was greater than 10000 nM throughout.
As for `O=C(Nc1cnccc1Cl)N1CCC(CCOc2ccccc2)C1` (stereo not shown) [Example 57, 3-(2-Phenoxy-ethyl)-pyrrolidine-1-carboxylic acid (4-chloropyridin-3-yl)-amide], the IC50 (in general, the midpoint of a concentration-inhibition curve) in test [1] is greater than 10000 nM; in test [2], 3000 nM.
Taken in the same sequence, the figures for `CS(=O)(=O)c1ccc(Oc2cccc(OCC3CCN(C(=O)Nc4cccnc4)C3)c2)cc1` (stereo not shown) [Example 52, 3-({3-[4-(Methylsulfonyl)phenoxy]phenoxy}methyl)-N-pyridin-3-ylpyrrolidine-1-carboxamide] were 1000 nM and 100 nM.
Taken in the same sequence, the figures for `O=C(Nc1cccnc1)N1CC(COc2ccc(C(F)(F)F)c(Cl)c2)C1` [Example 10, 3-(3-Chloro-4-trifluoromethyl-phenoxymethyl)-azetidine-1-carboxylic acid pyridin-3-ylamide] were 300 nM and 1400 nM.
The corresponding values for `CS(=O)(=O)c1ccc(Oc2cccc(OCC3CCN(C(=O)Nc4cnccc4Cl)C3)c2)cc1` (stereo not shown) [Example 50, N-(4-Chloropyridin-3-yl)-3-({3-[4-(methylsulfonyl)phenoxy]phenoxy}methyl)pyrrolidine-1-carboxamide] are 97 nM and 9 nM.
`O=C(Nc1cccnc1)N1CC(CCOc2cccc(Oc3ccc(OC(F)(F)F)cc3)c2)C1` [Example 29, 3-{2-[3-(4-Trifluoromethoxy-phenoxy)-phenoxy]-ethyl}-azetidine-1-carboxylic acid pyridin-3-ylamide]: the IC50 in test [1] amounted to 400 nM; in test [2], 53 nM.
The corresponding values for `O=C(Nc1cccnc1)N1CC(CCOCc2ccc(Cl)c(Cl)c2)C1` [Example 68, 3-[2-(3,4-Dichloro-benzyloxy)-ethyl]-azetidine-1-carboxylic acid pyridin-3-ylamide, trifluoroacetate salt] are 1230 nM and 849 nM.
In the case of `O=C(Nc1cnccc1Cl)N1CCC(Cc2cccc(Oc3ccc(F)cc3)c2)C1` (stereo not shown) [Example 75, 3-[3-(4-Fluoro-phenoxy)-benzyl]-pyrrolidine-1-carboxylic acid (4-chloro-pyridin-3-yl)-amide], the values for the IC50 in test [1] and in test [2] were 30 nM and 45 nM, respectively.
On to `O=C(Nc1cccnc1)N1CC(CCOc2ccc3ccccc3n2)C1` [Example 36, 3-[2-(Quinolin-2-yloxy)-ethyl]-azetidine-1-carboxylic acid pyridin-3-ylamide], for which the IC50 in test [1] worked out at 430 nM; in test [2], 200 nM.
Take `O=C(Nc1cnccc1Cl)N1CCC(CCc2ccc3c(c2)OC(F)(F)O3)C1` (stereo not shown) [Example 78, 3-[2-(2,2-Difluoro-benzo[1,3]dioxol-5-yl)-ethyl]-pyrrolidine-1-carboxylic acid (4-chloro-pyridin-3-yl)-amide]: the IC50 in test [1] was found to be 320 nM; in test [2], 230 nM.
For the compound `O=C(Nc1cccnc1)N1CC(COc2cccc(OC(F)(F)F)c2)C1` [Example 6, 3-(3-Trifluoromethoxy-phenoxymethyl)-azetidine-1-carboxylic acid pyridin-3-ylamide], the figures for the IC50 in test [1] and in test [2] were 175 nM and 1100 nM, respectively.
Taken in the same sequence, the figures for `O=C(Nc1cccnc1)N1CC(CCOc2ccc3ccccc3c2)C1` [Example 35, 3-[2-(Naphthalen-2-yloxy)-ethyl]-azetidine-1-carboxylic acid pyridin-3-ylamide, trifluoroacetate salt] were 350 nM and 160 nM.
Taken in the same sequence, the figures for `O=C(Nc1cccnc1)N1CCC(Cc2cccc(Oc3ccc(F)cc3)c2)C1` (stereo not shown) [Example 74, 3-[3-(4-Fluoro-phenoxy)-benzyl]-pyrrolidine-1-carboxylic acid pyridin-3-ylamide] were 1100 nM and 1200 nM.
